# Like-named read-outs stand apart in the source and are kept apart here.
# How the values were obtained:
# Format in all cases: physicochemical
# [1] = Accelerated stability testing; settings: 40° C.±2° C./75%±5% RH
# Procedure: (2) Accelerated Stability Testing
# (§1) Packaging: Simulated the commercial packaging (using a pharmaceutical-grade low-density polyethylene bag as the inner packaging and a polyester/aluminum/polyethylene composite bag for pharmaceutical packaging as the outer packaging)
# Investigation conditions: 40° C.±2° C./75%±5% RH
# [2] = Long-term stability testing; settings: 25° C.±2° C./60%±5% RH
# Procedure: (3) Long-Term Stability Testing
# as §1
# Investigation conditions: 25° C.±2° C./60%±5% RH
# [3] = Competition experiment between anhydrates and solvates and solvent activity experiment
# [4] = Stress testing (high temperature, high humidity, illumination); settings: for remaining at […] / remaining at 336 h / remaining at 720 h: read-out: Content
# [5] = Stability test, placed open 7 days (HPLC purity, XRPD); grinding or crushing; settings: for remaining at […]: solid state, open, 7 days, read-out: Purity (Peak area %) 7 days
# From the text: Subsequently, the samples after 7 days were respectively detected by HPLC and XRPD to determine their chemical and physical stabilities.
# [6] = Dynamic vapor sorption (DVS)
# Procedure: 4. Dynamic Vapor Sorption (DVS)
# Instrument: TA Instruments Q5000 SA
# Detection method: 20 to 50 mg of the sample was placed in a tared sample basket and automatically weighed, and DVS testing was performed according to the parameters in Table 7: Step Time: 60 min; Equilibration Time per RH %: 1 hour; Total Gas Flow Rate: 200 sccm; Gradient mode: 0%-90%-0% humidity variation, with a humidity variation amount of 10% for each gradient level between 0% and 90%, and gradient endpoint was determined by dm/dt<0.01% maintained for 10 minutes.
# [7] = High Humidity (92.5% RH), 7 days
# [8] = High Humidity (92.5% RH), 14 days
# [9] = High Humidity (92.5% RH), 30 days
# [10] = High Temperature (60° C.), 7 days
# [11] = High Temperature (60° C.), 14 days
# [12] = High Temperature (60° C.), 30 days
# [13] = Illumination Testing 45001x ± 5001x, 7 days
# [14] = Illumination Testing 45001x ± 5001x, 14 days
# [15] = Illumination Testing 45001x ± 5001x, 30 days
# [16] = 60° C., 92.5% RH and 40° C./75% RH for 7 days
smiles,measurement,setting,value
CC(=O)c1c(C)c2cnc(Nc3ccc4c(c3)OC[C@@H]3CN(C5CCN(C)CC5)CCN43)nc2n(C2CCCC2)c1=O [listing 1 of 4 here],Description Appearance,[1]; 0 months,Yellow
same,Total impurities,[1]; 0 months,0.84%
same,crystalline form,[1]; 0 months,crystalline
same,loss on drying,[1]; 0 months,0.03%
same,Description Appearance,[1]; 1 month,Yellow
same,Total impurities,[1]; 1 month,0.80%
same,loss on drying,[1]; 1 month,0.04%
same,Description Appearance,[1]; 2 months,Yellow
same,Total impurities,[1]; 2 months,0.82%
same,loss on drying,[1]; 2 months,0.02%
same,Description Appearance,[1]; 3 months,Yellow
same,Total impurities,[1]; 3 months,0.85%
same,crystalline form,[1]; 3 months,Unchanged
same,loss on drying,[1]; 3 months,0.02%
same,Description Appearance,[1]; 6 months,Yellow
same,Total impurities,[1]; 6 months,0.77%
same,crystalline form,[1]; 6 months,Unchanged
same,loss on drying,[1]; 6 months,0.08%
same,remaining at 720 h,"[1]; solid, 75% rh storage, 1 month, read-out: Measured content",100%
same,remaining at 1440 h,"[1]; solid, 75% rh storage, 2 months, read-out: Measured content",101%
same,remaining at 2160 h,"[1]; solid, 75% rh storage, 3 months, read-out: Measured content",101%
same,remaining at 4320 h,"[1]; solid, 75% rh storage, 6 months, read-out: Measured content",101%
same,Description Appearance,[2]; 0 months,Yellow
same,Total impurities,[2]; 0 months,0.84%
same,crystalline form,[2]; 0 months,crystalline
same,loss on drying,[2]; 0 months,0.03%
same,Description Appearance,[2]; 3 months,Yellow solid
same,Total impurities,[2]; 3 months,0.89%
same,crystalline form,[2]; 3 months,Unchanged
same,loss on drying,[2]; 3 months,0.02%
same,Description Appearance,[2]; 6 months,Yellow solid
same,Total impurities,[2]; 6 months,0.75%
same,crystalline form,[2]; 6 months,Unchanged
same,loss on drying,[2]; 6 months,0.05%
same,Description Appearance,[2]; 9 months,Yellow solid
same,Total impurities,[2]; 9 months,0.73%
same,crystalline form,[2]; 9 months,Unchanged
same,loss on drying,[2]; 9 months,0.05%
same,Description Appearance,[2]; 12 months,Yellow solid
same,Total impurities,[2]; 12 months,0.78%
same,crystalline form,[2]; 12 months,Unchanged
same,loss on drying,[2]; 12 months,0.05%
same,Description Appearance,[2]; 18 months,Yellow solid
same,Total impurities,[2]; 18 months,0.71%
same,crystalline form,[2]; 18 months,Unchanged
same,loss on drying,[2]; 18 months,0.03%
same,remaining at 2160 h,"[2]; solid, 60% rh storage, 3 months, read-out: Measured content",101%
same,remaining at 4320 h,"[2]; solid, 60% rh storage, 6 months, read-out: Measured content",101%
same,remaining at 6480 h,"[2]; solid, 60% rh storage, 9 months, read-out: Measured content",99.6%
same,remaining at 8640 h,"[2]; solid, 60% rh storage, 12 months, read-out: Measured content",101%
same,remaining at 12960 h,"[2]; solid, 60% rh storage, 18 months, read-out: Measured content",98.7%
CC(=O)c1c(C)c2cnc(Nc3ccc4c(c3)OC[C@@H]3CN(C5CCN(C)CC5)CCN43)nc2n(C2CCCC2)c1=O [listing 2 of 4 here],Test Results (crystalline form by XRPD),"[3]; solvent activity experiment, 20% Trifluoroethanol (v/v)",crystalline form A-I
same,Test Results (crystalline form by XRPD),"[3]; solvent activity experiment, 50% Trifluoroethanol (v/v)",crystalline form A-I
same,Test Results (crystalline form by XRPD),"[3]; solvent activity experiment, 80% Trifluoroethanol (v/v)",crystalline form A-II
CC(=O)c1c(C)c2cnc(Nc3ccc4c(c3)OC[C@@H]3CN(C5CCN(C)CC5)CCN43)nc2n(C2CCCC2)c1=O [listing 3 of 4 here],Test Results (crystalline form by XRPD),"[3]; solvent activity experiment, 20% Dimethyl sulfoxide (v/v)",crystalline form A-I
same,Test Results (crystalline form by XRPD),"[3]; solvent activity experiment, 50% Dimethyl sulfoxide (v/v)",crystalline form A-I
same,Test Results (crystalline form by XRPD),"[3]; solvent activity experiment, 80% Dimethyl sulfoxide (v/v)",crystalline form A-I
CC(=O)c1c(C)c2cnc(Nc3ccc4c(c3)OC[C@@H]3CN(C5CCN(C)CC5)CCN43)nc2n(C2CCCC2)c1=O [listing 4 of 4 here],Test Results (crystalline form by XRPD),"[3]; competition experiment, n-Butanol, room temperature",crystalline form A-I
same,Test Results (crystalline form by XRPD),"[3]; competition experiment, n-Butanol/Anisole (v:v = 1:1), room temperature",crystalline form A-I
CC(=O)c1c(C)c2cnc(Nc3ccc4c(c3)OC[C@@H]3CN(C5CCN(C)CC5)CCN43)nc2n(C2CCCC2)c1=O [crystalline form A-I],Description Appearance,[4]; 0 Day,Yellow
same,crystalline form,[4]; 0 Day,crystalline
same,Description Appearance,[4]; [7],Yellow
same,remaining at […],[4]; [7],100%
same,Description Appearance,[4]; [8],Yellow
same,remaining at 336 h,[4]; [8],99.6%
same,Description Appearance,[4]; [9],Yellow
same,remaining at 720 h,[4]; [9],101%
same,Description Appearance,[4]; [10],Yellow
same,remaining at […],[4]; [10],100%
same,Description Appearance,[4]; [11],Yellow
same,remaining at 336 h,[4]; [11],101%
same,Description Appearance,[4]; [12],Yellow
same,remaining at 720 h,[4]; [12],100%
same,Description Appearance,[4]; [13],Yellow
same,Total impurities,[4]; [13],0.76%
same,loss on drying,[4]; [13],0.07%
same,remaining at […],[4]; [13],101%
same,Description Appearance,[4]; [14],Yellow
same,Total impurities,[4]; [14],0.79%
same,loss on drying,[4]; [14],0.06%
same,remaining at 336 h,[4]; [14],100%
same,Description Appearance,[4]; [15],Yellow
same,Total impurities,[4]; [15],0.84%
same,crystalline form,[4]; [15],Unchanged
same,loss on drying,[4]; [15],0.07%
same,remaining at 720 h,[4]; [15],100%
same,change in the description,[4]; all stress test conditions,no significant change
same,change in the hygroscopic weight gain,[4]; high-humidity conditions,no significant change
same,relevant substances compared with 0 month,[4]; high-humidity conditions,remained unchanged
same,change in relevant substances,[4]; high-temperature conditions,no significant change
same,Purity (Peak area %) 0 day,[5]; 0 day,99.16 Peak area %
same,chemical stability (HPLC),[5]; [16],chemically stable
same,crystalline form by XRPD after 7 days under the three conditions,[5]; [16],remained unchanged
same,crystalline form after grinding or crushing,[5]; grinding or crushing,remained unchanged
same,remaining at […],[5]; 40° C./75% RH,99.2%
same,remaining at […],[5]; 60° C.,99.2%
same,remaining at […],[5]; 92.5% RH,99.2%
same,hygroscopicity (DVS),[6]; 0%-90% RH,non-hygroscopic
same,weight change (DVS),[6]; across 0%-90% RH,approximately 0.17%
CC(=O)c1c(C)c2cnc(Nc3ccc4c(c3)OC[C@@H]3CN(C5CCN(C)CC5)CCN43)nc2n(C2CCCC2)c1=O [crystalline form F],XRPD pattern / crystalline form after the DVS test,[6]; after DVS test,did not change
same,moisture absorption (DVS),[6]; at 80% RH,approximately 3.8%

# — patent publication US20260285879A1, “CDK INHIBITOR AND CRYSTAL FORM OF PHARMACEUTICALLY ACCEPTABLE SALT THEREOF, AND USE THEREOF” (priority 2023, published 2026)
